Assay results from PubChem BioAssay (NCI).
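Five compound concentrations were applied to cells in 96-well plates for 48 hours; endpoints were derived by simple linear interpolation of the resulting dose-response curve. Definition used: TGI = concentration required for complete inhibition of growth.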

Legend:
Test in all cases: inhibition of tumour cell growth, NCI panel, 48 h
LXFL 529 NSCLC = tested on: LXFL 529 NSCLC
UACC-257 melanoma = tested on: UACC-257 melanoma
SR leukemia = tested on: SR leukemia
EKVX NSCLC = tested on: EKVX NSCLC
HCC-2998 colon = tested on: HCC-2998 colon
UO-31 renal = tested on: UO-31 renal
SK-MEL-5 melanoma = tested on: SK-MEL-5 melanoma
COLO 205 colon = tested on: COLO 205 colon
DMS 114 small cell lung = tested on: DMS 114 small cell lung
HOP-92 NSCLC = tested on: HOP-92 NSCLC
OVCAR-8 ovarian = tested on: OVCAR-8 ovarian
KM20L2 colon = tested on: KM20L2 colon
OVCAR-4 ovarian = tested on: OVCAR-4 ovarian
XF 498 CNS = tested on: XF 498 CNS
K-562 leukemia = tested on: K-562 leukemia
SNB-75 CNS = tested on: SNB-75 CNS
NCI-H23 lung = tested on: NCI-H23 lung
SF-268 CNS = tested on: SF-268 CNS
NCI-H460 lung = tested on: NCI-H460 lung
NCI-H522 lung = tested on: NCI-H522 lung
SF-295 CNS = tested on: SF-295 CNS
MALME-3M melanoma = tested on: MALME-3M melanoma
SW-620 colon = tested on: SW-620 colon
TK-10 renal = tested on: TK-10 renal
UACC-62 melanoma = tested on: UACC-62 melanoma
786-0 renal = tested on: 786-0 renal
SN12C renal = tested on: SN12C renal
A549 NSCLC = tested on: A549 NSCLC
HOP-18 NSCLC = tested on: HOP-18 NSCLC
M14 melanoma = tested on: M14 melanoma
CAKI-1 renal = tested on: CAKI-1 renal
SF-539 CNS = tested on: SF-539 CNS
HCT-116 colon = tested on: HCT-116 colon
HCT-15 colon = tested on: HCT-15 colon
RPMI-8226 leukemia = tested on: RPMI-8226 leukemia
SNB-19 CNS = tested on: SNB-19 CNS
HT29 colon = tested on: HT29 colon
OVCAR-3 ovarian = tested on: OVCAR-3 ovarian
ACHN renal = tested on: ACHN renal
MOLT-4 leukemia = tested on: MOLT-4 leukemia
NCI-H226 lung = tested on: NCI-H226 lung
M19-MEL melanoma = tested on: M19-MEL melanoma
SK-MEL-2 melanoma = tested on: SK-MEL-2 melanoma
CCRF-CEM leukemia = tested on: CCRF-CEM leukemia
SK-MEL-28 melanoma = tested on: SK-MEL-28 melanoma
DMS 273 small cell lung = tested on: DMS 273 small cell lung
HOP-62 NSCLC = tested on: HOP-62 NSCLC
HL-60(TB) leukemia = tested on: HL-60(TB) leukemia
KM12 colon = tested on: KM12 colon
U251 CNS = tested on: U251 CNS
SNB-78 CNS = tested on: SNB-78 CNS
RXF 393 renal = tested on: RXF 393 renal
OVCAR-5 ovarian = tested on: OVCAR-5 ovarian
LOX IMVI melanoma = tested on: LOX IMVI melanoma
SK-OV-3 ovarian = tested on: SK-OV-3 ovarian
DLD-1 colon = tested on: DLD-1 colon

## CCCCCCC1CCC2CCCC(C)N12 (stereo not drawn)
LXFL 529 NSCLC
  TGI: > 10 µM
UACC-257 melanoma
  TGI: > 100 µM
SR leukemia
  TGI: 58.4 µM
EKVX NSCLC
  TGI: > 100 µM
HCC-2998 colon
  TGI: 45.6 µM
UO-31 renal
  TGI: > 100 µM
SK-MEL-5 melanoma
  TGI: > 100 µM
COLO 205 colon
  TGI: 34.1 µM
DMS 114 small cell lung
  TGI: > 100 µM
HOP-92 NSCLC
  TGI: > 100 µM
OVCAR-8 ovarian
  TGI: > 100 µM
KM20L2 colon
  TGI: > 100 µM
OVCAR-4 ovarian
  TGI: > 100 µM
XF 498 CNS
  TGI: 36.1 µM
K-562 leukemia
  TGI: 35.3 µM
SNB-75 CNS
  TGI: > 100 µM
NCI-H23 lung
  TGI: 97.4 µM
SF-268 CNS
  TGI: > 100 µM
NCI-H460 lung
  TGI: 59.8 µM
NCI-H522 lung
  TGI: > 100 µM
SF-295 CNS
  TGI: > 100 µM
MALME-3M melanoma
  TGI: > 10 µM
SW-620 colon
  TGI: 31.1 µM
TK-10 renal
  TGI: > 100 µM
UACC-62 melanoma
  TGI: > 100 µM
786-0 renal
  TGI: > 100 µM
SN12C renal
  TGI: > 100 µM
A549 NSCLC
  TGI: > 100 µM
HOP-18 NSCLC
  TGI: > 100 µM
M14 melanoma
  TGI: 76.9 µM
CAKI-1 renal
  TGI: > 100 µM
SF-539 CNS
  TGI: > 100 µM
HCT-116 colon
  TGI: > 100 µM
HCT-15 colon
  TGI: 89.6 µM
RPMI-8226 leukemia
  TGI: 53.9 µM
SNB-19 CNS
  TGI: > 100 µM
HT29 colon
  TGI: > 10 µM
OVCAR-3 ovarian
  TGI: > 100 µM
ACHN renal
  TGI: > 100 µM
MOLT-4 leukemia
  TGI: 47.1 µM
NCI-H226 lung
  TGI: > 100 µM
M19-MEL melanoma
  TGI: > 100 µM
SK-MEL-2 melanoma
  TGI: 69.2 µM
CCRF-CEM leukemia
  TGI: 62 µM
SK-MEL-28 melanoma
  TGI: > 100 µM
DMS 273 small cell lung
  TGI: > 100 µM
HOP-62 NSCLC
  TGI: > 100 µM
HL-60(TB) leukemia
  TGI: 38.2 µM
KM12 colon
  TGI: > 100 µM
U251 CNS
  TGI: > 100 µM

## Nc1nc2ncn(CCO)c2c(=O)[nH]1
LXFL 529 NSCLC
  TGI: > 100 µM
SNB-78 CNS
  TGI: > 100 µM
UACC-257 melanoma
  TGI: > 100 µM
SR leukemia
  TGI: > 100 µM
EKVX NSCLC
  TGI: > 100 µM
HCC-2998 colon
  TGI: > 100 µM
UO-31 renal
  TGI: > 100 µM
COLO 205 colon
  TGI: > 100 µM
HOP-92 NSCLC
  TGI: > 100 µM
OVCAR-8 ovarian
  TGI: > 100 µM
KM20L2 colon
  TGI: > 100 µM
XF 498 CNS
  TGI: > 100 µM
SNB-75 CNS
  TGI: > 100 µM
NCI-H23 lung
  TGI: > 100 µM
RXF 393 renal
  TGI: > 100 µM
SF-268 CNS
  TGI: > 100 µM
NCI-H460 lung
  TGI: > 100 µM
SF-295 CNS
  TGI: > 100 µM
MALME-3M melanoma
  TGI: > 100 µM
SW-620 colon
  TGI: > 100 µM
OVCAR-5 ovarian
  TGI: > 100 µM
TK-10 renal
  TGI: > 100 µM
UACC-62 melanoma
  TGI: > 100 µM
786-0 renal
  TGI: > 100 µM
SN12C renal
  TGI: > 100 µM
A549 NSCLC
  TGI: > 100 µM
HOP-18 NSCLC
  TGI: > 100 µM
SF-539 CNS
  TGI: > 100 µM
HCT-116 colon
  TGI: > 100 µM
HCT-15 colon
  TGI: > 100 µM
RPMI-8226 leukemia
  TGI: > 100 µM
SNB-19 CNS
  TGI: > 100 µM
HT29 colon
  TGI: > 100 µM
OVCAR-3 ovarian
  TGI: > 100 µM
ACHN renal
  TGI: > 100 µM
MOLT-4 leukemia
  TGI: > 100 µM
NCI-H226 lung
  TGI: > 100 µM
M19-MEL melanoma
  TGI: > 100 µM
LOX IMVI melanoma
  TGI: > 100 µM
SK-MEL-2 melanoma
  TGI: > 100 µM
CCRF-CEM leukemia
  TGI: > 100 µM
SK-MEL-28 melanoma
  TGI: > 100 µM
DMS 273 small cell lung
  TGI: > 100 µM
SK-OV-3 ovarian
  TGI: > 100 µM
HOP-62 NSCLC
  TGI: > 100 µM
DLD-1 colon
  TGI: > 100 µM
HL-60(TB) leukemia
  TGI: > 100 µM
U251 CNS
  TGI: > 100 µM
